Reference: US7855177B1, “Methods and kits for preventing hypoglycemia” (Cebix Inc., priority 2009, dated 2010)

Test system: type 1 diabetes patients with peripheral neuropathy
Experiment: Phase II trial: adverse events
Conditions: for Total treatment emergent AEs of any severity, number / Total treatment emergent AEs possibly related to study drug, number: all SOCs; for Total Adverse Events, Moderate / Total Adverse Events, Severe: ITT data set, number of treatment emergent AEs
[1] = High-dose C-peptide, SOC Blood and lymphatic system disorder
[2] = High-dose C-peptide, SOC Eye disorder
[3] = High-dose C-peptide, SOC Gastro-intestinal Disorders
[4] = High-dose C-peptide, SOC General disorders and administration site conditions
[5] = High-dose C-peptide, SOC Infections and infestations
[6] = High-dose C-peptide, SOC Injury poisoning, procedural complications
[7] = High-dose C-peptide, SOC Investigations
[8] = High-dose C-peptide, SOC Metabolism and nutritional disorders
[9] = High-dose C-peptide, SOC Musculoskeletal and connective tissue disorder
[10] = High-dose C-peptide, SOC Nervous system disorders
[11] = High-dose C-peptide, SOC Reproductive system and breast disorders
[12] = High-dose C-peptide, SOC Respiratory, thoracic, and mediastinal disorders
[13] = High-dose C-peptide, SOC Skin and subcutaneous tissue disorders
[14] = High-dose C-peptide, SOC Surgical and Medical
[15] = High-dose C-peptide, SOC Vascular disorders
[16] = Low-dose C-peptide, SOC Cardiac disorder
[17] = Low-dose C-peptide, SOC Eye disorder
[18] = Low-dose C-peptide, SOC Gastro-intestinal Disorders
[19] = Low-dose C-peptide, SOC Immune system disorders
[20] = Low-dose C-peptide, SOC Infections and infestations
[21] = Low-dose C-peptide, SOC Injury poisoning, procedural complications
[22] = Low-dose C-peptide, SOC Investigations
[23] = Low-dose C-peptide, SOC Metabolism and nutritional disorders
[24] = Low-dose C-peptide, SOC Musculoskeletal and connective tissue disorder
[25] = Low-dose C-peptide, SOC Nervous system disorders
[26] = Low-dose C-peptide, SOC Psychiatric disorders
[27] = Low-dose C-peptide, SOC Skin and subcutaneous tissue disorders
[28] = Low-dose C-peptide, SOC Surgical and Medical

Procedure: The safety measurements comprised collection of AEs, spontaneously reported by the patient or recorded by the investigator at each clinical visit. Review of laboratory investigations, vital signs, and physical examinations was performed at the S/B visit, visit 2, and at end of study (visit 4). ECG was performed at the S/B visit and at visit 4.
An AE was classified as “unexpected event” (i.e., if not specifically listed in the Investigator's Brochure) in terms of nature, severity, or frequency. All AEs, including intercurrent illnesses and increased severity or frequency of sign/symptoms of a concomitant disease was reported and documented as described below. AEs were documented on an “Adverse Event/Serious Adverse Event” page of the CRF and in the patient's medical records. Any AE occurring at any time after the end of the study, considered to be caused by the study medication—and therefore a possible adverse drug reaction—was reported to the sponsor.
The period of observation for AEs extended from the time the patient started on trial medication until end of the study. AEs were divided into the categories “serious” and “non-serious”. This determined the procedure used to report/document the AE.
Regardless of the classification of an AE as serious or non-serious (see above), its severity was assessed as mild, moderate, or severe, according to medical criteria alone:
Descriptive statistics were used for safety variables. For lab parameters summary statistics were presented as change from baseline and between doses. The changes from baseline were calculated and compared with normal ranges. The safety analysis set included all patients who obtained at least one dose of the investigational drug. AEs were coded according to the MedDRA dictionary. The frequencies of AEs are tabulated by body system and included/preferred term.

CC(C)C[C@H](NC(=O)[C@H](C)NC(=O)[C@H](CC(C)C)NC(=O)[C@@H]1CCCN1C(=O)[C@H](CCC(N)=O)NC(=O)[C@H](CC(C)C)NC(=O)[C@H](CO)NC(=O)CNC(=O)[C@H](C)NC(=O)CNC(=O)[C@@H]1CCCN1C(=O)CNC(=O)CNC(=O)CNC(=O)[C@H](CC(C)C)NC(=O)[C@H](CCC(=O)O)NC(=O)[C@@H](NC(=O)[C@H](CCC(N)=O)NC(=O)CNC(=O)[C@@H](NC(=O)[C@H](CCC(N)=O)NC(=O)[C@H](CC(C)C)NC(=O)[C@H](CC(=O)O)NC(=O)[C@H](CCC(=O)O)NC(=O)[C@H](C)NC(=O)[C@@H](N)CCC(=O)O)C(C)C)C(C)C)C(=O)N[C@@H](CCC(=O)O)C(=O)NCC(=O)N[C@@H](CO)C(=O)N[C@@H](CC(C)C)C(=O)N[C@@H](CCC(N)=O)C(=O)O [C-peptide]
tolerability (500-1,500 nmoL/24 h): well tolerated
Anemia, number of AEs [1]: 1
Hemorrhage, number of AEs [1]: 1
Macular edema, number of AEs [2]: 1
Vitreous hemorrhage, number of AEs [2]: 1
Abdominal pain, number of AEs [3]: 3
Aptyalism, number of AEs [3]: 1
Diarrhea, number of AEs [3]: 1
Gastritis, number of AEs [3]: 1
Nausea, number of AEs [3]: 4
Tooth ache, number of AEs [3]: 3
Chest pain, number of AEs [4]: 2
Fatigue, number of AEs [4]: 2
Feeling abnormal, number of AEs [4]: 3
Injection site burning, number of AEs [4]: 1 (1)
Injection site burning, number of AEs possibly related to study drug [4]: 1 (1)
Gastroenteritis, number of AEs [5]: 7
Otitis, number of AEs [5]: 2
Pharyngitis, number of AEs [5]: 2
Sepsis, number of AEs [5]: 1
Sinusitis, number of AEs [5]: 2
Skin infection, number of AEs [5]: 1
Tonsilitis, number of AEs [5]: 2
Tooth infection, number of AEs [5]: 2
Upper respiratory tract infection, number of AEs [5]: 1
Urinary tract infection, number of AEs [5]: 1
Blister, number of AEs [6]: 2
Dizziness, number of AEs [6]: 1
Eye injury, number of AEs [6]: 1
Food poisoning, number of AEs [6]: 1
Joint sprain ankle, number of AEs [6]: 1
Knee injury, number of AEs [6]: 1
Rib fracture/injury, number of AEs [6]: 2
Scar, number of AEs [6]: 1
Tooth injury, number of AEs [6]: 1
Cardiac murmur, number of AEs [7]: 1
Hematuria, number of AEs [7]: 1
Hepatic enzyme increase, number of AEs [7]: 2
Hypercalcemia, number of AEs [7]: 1
Leucopenia, number of AEs [7]: 1
Lymph node enlargement, number of AEs [7]: 1
Hyperglycemia, number of AEs [8]: 1
Hypoglycemia, number of AEs [8]: 5
Hypoglycemia, number of AEs possibly related to study drug [8]: 1
Hypoglycemic coma, number of AEs [8]: 2
Vitamin B12 deficiency, number of AEs [8]: 1
Arthralgia, number of AEs [9]: 3
Arthritis, number of AEs [9]: 1
Arthropathy, number of AEs [9]: 1
Back pain, number of AEs [9]: 2
Epicondylitis, number of AEs [9]: 1
Muscle spasm, number of AEs [9]: 1
Muscular atrophy, number of AEs [9]: 1
Myalgia, number of AEs [9]: 1
Pain in extremity, number of AEs [9]: 4
Pain in shoulder, number of AEs [9]: 1
Tendinitis, number of AEs [9]: 1
Tendosynovitis, number of AEs [9]: 1
Torticollis, number of AEs [9]: 1
Burning sensation, number of AEs [10]: 1
Headache, number of AEs [10]: 17
Hyperaesthesia, number of AEs [10]: 1 (1)
Hyperaesthesia, number of AEs possibly related to study drug [10]: 1 (1)
Migraine, number of AEs [10]: 1
Paraesthesia, number of AEs [10]: 2 (2)
Paraesthesia, number of AEs possibly related to study drug [10]: 2 (2)
Restless legs syndrome, number of AEs [10]: 1
Sciatica, number of AEs [10]: 1
Sensory loss, number of AEs [10]: 1
Vertigo, number of AEs [10]: 1
Pregnancy, number of AEs (High-dose C-peptide, SOC Pregnancy, puerperium and perinatal conditions): 2
Menopausal disorder, number of AEs [11]: 1
Menstration irregular, number of AEs [11]: 1
Cough, number of AEs [12]: 1
Epistaxis, number of AEs [12]: 1
Skin induration, number of AEs [13]: 1
Skin infection, number of AEs [13]: 2
Sweating increased, number of AEs [13]: 1
Limb operation, number of AEs [14]: 1
Tooth extraction, number of AEs [14]: 1
Arterial disorder, number of AEs [15]: 1
Hypertension, number of AEs [15]: 1
Hypotension, number of AEs [15]: 1
Total treatment emergent AEs of any severity, number (High-dose C-peptide): 156
Total treatment emergent AEs possibly related to study drug, number (High-dose C-peptide): 5
Anemia, number of AEs (Low-dose C-peptide, SOC Blood and lymphatic system disorder): 1
Cardiac arrhythmia, number of AEs [16]: 1
ST elevation (ECG), number of AEs [16]: 1
Tachycardia (stress, number of AEs) [16]: 1
Dacryocanaliculitis, number of AEs [17]: 1
Vision decreased, number of AEs [17]: 1
Celiac disease, number of AEs [18]: 1
Diarrhea, number of AEs [18]: 2
Flatulence, number of AEs [18]: 1
Nausea, number of AEs [18]: 1
Reflux gastritis, number of AEs [18]: 2
Tooth ache, number of AEs [18]: 2
Pyrexia, number of AEs (Low-dose C-peptide, SOC General disorders and administration site conditions): 3
Allergic urticaria, number of AEs [19]: 1
Dermatitis allergic, number of AEs [19]: 1
Rheumarthritis, number of AEs [19]: 1
Season allergy, number of AEs [19]: 1
Borrelia infection, number of AEs [20]: 1
Bronchitis, number of AEs [20]: 1
Candidiasis, number of AEs [20]: 2
Gastroenteritis, number of AEs [20]: 2
Herpes simplex, number of AEs [20]: 1
Herpeszoster, number of AEs [20]: 1
Influenza, number of AEs [20]: 1
Nasopharyngitis, number of AEs [20]: 31
Otitis, number of AEs [20]: 1
Pharyngitis, number of AEs [20]: 1
Sinusitis, number of AEs [20]: 4
Skin infection, number of AEs [20]: 5
Tonsilitis, number of AEs [20]: 1
Upper respiratory tract infection, number of AEs [20]: 3
Urinary tract infection, number of AEs [20]: 3
Joint sprain ankle, number of AEs [21]: 1
Rib fracture/injury, number of AEs [21]: 1
Skin injury, number of AEs [21]: 2
Elevated serum, number of AEs [22]: 1
Hepatic enzyme increase, number of AEs [22]: 2
Hepatic enzyme increase, number of AEs possibly related to study drug [22]: 1
Hyperkalaemia, number of AEs [22]: 1
Weight increased, number of AEs [22]: 1
Hyperglycemia, number of AEs [23]: 1 (1)
Hyperglycemia, number of AEs possibly related to study drug [23]: 1 (1)
Hyperlipidemia, number of AEs [23]: 1
Hypoglycemia, number of AEs [23]: 2
Hypoglycemia, number of AEs possibly related to study drug [23]: 1
Hypoglycemic coma, number of AEs [23]: 2
Insulin sensitivity, number of AEs [23]: 1 (1)
Insulin sensitivity, number of AEs possibly related to study drug [23]: 1 (1)
Arthralgia, number of AEs [24]: 3
Arthritis, number of AEs [24]: 1
Arthropathy, number of AEs [24]: 2
Epicondylitis, number of AEs [24]: 1
Exostosis, number of AEs [24]: 2
Muscle cramp, number of AEs [24]: 1
Musculoskeletal chest, number of AEs [24]: 1
Myalgia, number of AEs [24]: 3
Pain in extremity, number of AEs [24]: 3
Pain in extremity, number of AEs possibly related to study drug [24]: 1
Pain in neck, number of AEs [24]: 1
Synovial disorder, number of AEs [24]: 1
Tendinous contracture, number of AEs [24]: 1
Carpal tunnel syndrome, number of AEs [25]: 1
Dizziness, number of AEs [25]: 2
Headache, number of AEs [25]: 35
Hyperthermeasthesia, number of AEs [25]: 2 (2)
Hyperthermeasthesia, number of AEs possibly related to study drug [25]: 2 (2)
Hypoaesthesia, number of AEs [25]: 2
Multiple sclerosis, number of AEs [25]: 1
Paraesthesia, number of AEs [25]: 2
Paraesthesia, number of AEs possibly related to study drug [25]: 1
Depression, number of AEs [26]: 1
Panic disorder, number of AEs [26]: 1
Stress disorder, number of AEs [26]: 1
Asthma, number of AEs (Low-dose C-peptide, SOC Respiratory, thoracic, and mediastinal disorders): 1
Dry skin, number of AEs [27]: 1
Fibroma, number of AEs [27]: 1
Skin induration, number of AEs [27]: 2
Eye operation, number of AEs [28]: 1
Limb operation, number of AEs [28]: 1
Hypertension, number of AEs (Low-dose C-peptide, SOC Vascular disorders): 1
Total treatment emergent AEs of any severity, number (Low-dose C-peptide): 173
Total treatment emergent AEs possibly related to study drug, number (Low-dose C-peptide): 8
local reactions (S.C. injection, 500-1,500 nmoL/24 h): No local reactions
SAEs (high-dose C-peptide (1,500 nmoL/24 h)): Two
AEs possibly/probably related to the study drug (high-dose C-peptide group): 5
patients without reported AEs (high-dose C-peptide group): 6 patients
patients with AEs (high-dose C-peptide group, 44 out of 52 patients): 85%
Total Adverse Events, Moderate (high-dose C-peptide group): Moderate = 43
Total Adverse Events, Severe (high-dose C-peptide group): Severe = 9
relationship of SAEs to the trial medication (high-dose C-peptide, investigators' assessment): unlikely/not related
patients without reported AEs (low-dose C-peptide group): 8 patients
patients with AEs (low-dose C-peptide group, 48 out of 56 patients): 86%
Total Adverse Events, Moderate (low-dose C-peptide group): Moderate = 51
Total Adverse Events, Severe (low-dose C-peptide group): Severe = 1
